{"source": "patent US20040132188A1", "about": "“Use of non-complexing peptides for the preparation of a composition for transfection of a polynucleotide into a cell and compositions useful in gene therapy” (priority 2001, published 2004)", "key": {"B6SJL mice, lungs [1]": {"system": "B6SJL mice, lungs", "assay": "In vivo gene transfer after intravenous injection, luciferase activity in the lungs", "conditions": "3 days after injection"}, "[2]": {"assay": "Liposome leakage assay, POPC/cholesterol 3:2 liposomes", "type": "biochemical", "source_text": "FIG. 9: Liposome leakage assay. […] Emitted fluorescence was plotted against peptide concentration. […] C) Comparison of ppTG1, ppTG20 and ppTG21 at pH 7.\nLeakage activity was plotted against peptide concentration."}, "HeLa cells": {"system": "HeLa cells", "assay": "Transfection in vitro, luciferase plasmid pTG11236", "type": "cell-based", "procedure": "Cells were plated on 24 well plates at a density of 4×10^4 (293-EBNA ) or 7×10^4 (HeLa, Renca) cells/well in DMEM supplemented with 10% FCS. The next day, the medium was replaced by 200 μl serum-free DMEM and plasmid (PTG11056 or pTG11236)/peptide complexes or plasmid/peptide/lipid complexes were prepared in 30 μl 0.9% NaCl or 5% glucose. After 20 min at room temperature these complexes were added to the cells which were then incubated for 2-3 h at 37° C. and 5% CO2 before 1 ml serum-containing DMEM was added. Approximately 20 hours later, cells were lysed by addition of 100 μl 1× Promega lysis buffer, 20 μl of the lysates were analysed for luciferase activity. Proteins were quantified with the bicinchonic acid (BCA) colorimetric method (Smith, Anal. Biochem. 150 (1985), 76-85). […]\nHeLa cells were seeded at a density of 6×10^4 cells on 24 well plates. The next day, cells were incubated with 200 μl serum-free medium, 30 μl of plasmid (50 ng)/peptide/lipid mixtures were added and incubated for 3 h at 37° C. in 5% CO2. 1 ml of DMEM+10% FCS was then added. The next day, the medium was removed and cells were washed with 500 μl of PBS and subsequently treated with 100 μl of Promega lysis buffer. Plates were stored at −80° C. until luciferase activity was measured of 20 μl of the cell lysate. The protein assay was performed using the Pierce BCA kit.\nJTS1 was dissolved to 1 mg/ml in 1 mM NaOH and mixed with DNA diluted in 5% glucose. ppTG1 was then added to this solution. The pcTG90/DOPE ppTG1 mixtures were prepared as described in Example 6. Transfection assays were performed on HeLa cells with 50 ng of plasmid as described in Example 6.\nThe series of ppTG1 derivatives listed in Material and Methods were tested for their gene transfer efficiencies in Hela cells. 6×10^4 cells were transfected with 50 ng pTG11236 complexed with increasing amounts of peptide. Luciferase activity was analyzed day 1 after transfection. The results are shown in FIG. 10B (ppTG20, ppTG21), FIG. 10C (ppTG25, ppTG26, ppTG27), FIG. 10D (ppTG28 to ppTG33), FIG. 10E (PEG-ppTG1 and PEG-ppTG20), FIG. 10F (ppTG22 to ppTG24) and FIG. 10G (ppTG20-D)."}, "B6SJL mice, lungs [3]": {"system": "B6SJL mice, lungs", "assay": "In vivo gene transfer after intravenous injection, luciferase activity in the lungs", "procedure": "Mice were sacrificed at day 1.\nLungs were tested for luciferase activity."}, "CHO cells": {"system": "CHO cells", "assay": "Transfection in vitro, luciferase plasmid pTG11236", "type": "cell-based", "procedure": "A comparison of ppTG1 and KALA was carried out in HeLa and CHO cells. 5×10^4 cells were seeded on 24 well plates. The next day, cells were transfected with 500 ng and 50 ng of pTG11236, complexed with ppTG1 or KALA in 30μl 0.9% NaCl. The charge ratio±varied from 1, 2, 3, 4, 7 to 10. Cells were harvested 20 h after transfection and lysis was obtained in 100 μl Promega lysis buffer. Luciferase activity and total protein concentrations in 20 μl were determined."}}, "note": "“Also recorded” adds a separate entry of the source. Ends that are not written are not given here."}
{"sequence": "GLFKALLKLLKSLWKLLLKA", "values": [{"measurement": "gene expression over time", "setting": "B6SJL mice, lungs [1]", "result": "background levels"}, {"measurement": "liposome leakage activity", "setting": "[2]; POPC/Chol (3:2) liposomes, pH not separated (compared at pH 5 and pH 7)", "result": "destabilizes efficiently"}, {"measurement": "liposome leakage activity / calcein release", "setting": "[2]; POPC/chol liposomes, pH 7", "result": "efficiently liberate calcein"}, {"measurement": "liposome leakage of peptide/plasmid pTG11236 complexes", "setting": "[2]; charge ratios (P/N) of 1 or 0.8, pH 7", "result": "slightly reduced"}, {"measurement": "liposome leakage of peptide/plasmid pTG11236 complexes", "setting": "[2]; excess of peptide, P/N 5 or 10, pH 7", "result": "comparable to free ppTG1"}, {"measurement": "improvement of the transfection efficiency of pcTG90/DOPE", "setting": "HeLa cells; 50 ng plasmid, final charge ratio 3, 5 and 10, ppTG1 contributing 1/3, 1/5 and 1/10 of the positive charge", "result": "at least 1 log"}, {"measurement": "improvement of the transfection efficiency of pcTG90/DOPE", "setting": "HeLa cells; 50 ng plasmid, final charge ratio 5 and 10, ppTG1 contributing 2/3 and 7/10 of the positive charge", "result": 2, "unit": "log"}, {"measurement": "transfection, peptide alone", "setting": "HeLa cells; 50 ng plasmid, final charge ratio of 3", "result": "better results than pcTG90/DOPE alone"}, {"measurement": "comparison as transfection reagent", "setting": "HeLa cells; 0.5 μg or 0.05 μg pTG11236", "result": "better transfection reagent than JTS-1-K13"}, {"measurement": "luciferase activities", "setting": "HeLa cells; 0.5 μg or 0.05 μg pTG11236 with 1.17 μg or 0.117 μg peptide, charge ratio 1.8", "result": "comparable luciferase activities as observed for DNA formulated with Lipofectin"}, {"measurement": "more efficient than the complex comprising KALA", "setting": "HeLa cells; HeLa cells, in the best case", "result": 3000, "unit": "fold"}, {"measurement": "re-administration of peptide/plasmid complexes", "setting": "B6SJL mice, lungs [3]; at day 3 after the first injection", "result": "refractory"}, {"measurement": "re-administration of peptide/plasmid complexes", "setting": "B6SJL mice, lungs [3]; at day 14 after the first injection", "result": "re-appearance of reporter gene expression"}, {"measurement": "mice with gene expression in the lung", "setting": "B6SJL mice, lungs [3]; complexes of pTG11236 and peptide, intravenous, day 1", "result": "5 out of 5"}, {"measurement": "gene transfer efficiency in the lung", "setting": "B6SJL mice, lungs [3]; pTG11236/peptide complexes intravenously injected, luciferase day 1", "result": "at least comparable to gene transfer with the optimized lipoplexes; also recorded: comparable to those obtained with the lipoplexes; also recorded: better than with JTS-1-K13"}, {"measurement": "improvement of gene expression by presence of peptide in complexes comprising cationic lipids", "setting": "B6SJL mice, lungs [3]; pcTG90/DOPE 1:2 complexes, intravenous, lung, day 1", "result": 10, "unit": "factor"}, {"measurement": "more efficient in gene transfer than KALA", "setting": "CHO cells; 50 ng pTG11236", "result": 68, "unit": "fold"}, {"measurement": "more efficient in gene transfer than KALA", "setting": "CHO cells; 500 ng pTG11236", "result": 9, "unit": "fold"}, {"measurement": "more efficient than the complex comprising KALA", "setting": "CHO cells; CHO cells, in the best case", "result": 2500, "unit": "fold"}]}
